One assay deals with NCI60 cancer cell lines. As to the kind of experiment: NCI60 growth assay: growth inhibition (GI50) profiles of therapeutic agents and their similarity. It is filed as cell-based, human. As to the method:
The human tumor cell lines of the cancer screening panel may be grown in RPMI 1640 medium containing 5% fetal bovine serum and 2 mM L-glutamine. Cells may be inoculated into 96 well microtiter plates in 100 μL at plating densities ranging from 5,000 to 40,000 cells/well depending on the doubling time of individual cell lines. After cell inoculation, the microtiter plates may be incubated at 37° C., 5% CO2, 95% air and 100% relative humidity for 24 hours prior to addition of experimental agent (e.g., an anthracycline, such as doxorubicin, epirubicin, daunorubicin, or idarubicin, or an anthracycline-containing liposome, such as a doxorubicin-containing liposome (e.g., 2B3-101)). […]
Following agent addition (e.g., an anthracycline, such as doxorubicin, epirubicin, daunorubicin, or idarubicin, or an anthracycline-containing liposome, such as a doxorubicin-containing liposome (e.g., 2B3-101)), the plates may be incubated for an additional 48 h at 37° C., 5% CO2, 95% air, and 100% relative humidity. […] Bound stain may be subsequently solubilized with 10 mM trizma base, and the absorbance may be read on an automated plate reader at a wavelength of 515 nm. […] Percentage growth inhibition may be calculated as: [(Ti−Tz)/(C−Tz)]×100 for concentrations for which Ti>/=Tz [(Ti−Tz)/Tz]×100 for concentrations for which Ti<Tz […]

The subject of the next assay is breast cancer. The assay can be described thus: Clinical trial of 137 breast cancer patients treated with epirubicin (progression free survival, DRP validation). The class given is in vivo, human. An excerpt: The biomarkers of sensitivity and resistance identified in Example 2 and shown in Tables 3 and 4 have been validated in a clinical trial of 137 breast cancer patients treated with epirubicin. Patients were examined every 9 to 12 weeks by CT scan and clinical evaluation. After patient informed consent, mRNA was isolated from formalin fixed paraffin embedded tumor tissue from diagnostic biopsies and analyzed using Affymetrix arrays. Blinded predictions of epirubicin efficacy were compared to clinical data collected retrospectively from patient medical records. Statistical analysis was performed using Cox proportional hazards model adjusted for treatment line. The primary endpoint was progression free survival (PFS). Median time to progression was 9.3 months (95% CI: 7.2-13.2). Of the 137 patients, four received epirubicin more than once.
The estimated hazard ratio was 0.56 (90% CI: 0.35-0.89) comparing two patients with DRP score differing by 50 percentage points. The estimated median time to progression for a patient with a DRP value of 25% was 7 months versus 13 months for a patient with a DRP value of 75%. No interaction with previous adjuvant chemotherapy was observed (p=0.98).

Consider `COc1cccc2c1C(=O)c1c(O)c3c(c(O)c1C2=O)C[C@@](O)(C(=O)CO)C[C@@H]3O[C@H]1C[C@H](N)[C@@H](O)[C@H](C)O1` [epirubicin], for which the “anti-tumor activity compared with doxorubicin” value in the assay on NCI60 cancer cell lines is reported as “nearly identical to that of doxorubicin”. Moreover, the “Median time to progression” value in the assay on breast cancer (137 breast cancer patients treated with epirubicin) came out at 9.3 months. In addition, the “estimated median time to progression” value in the assay with breast cancer (patient with a DRP value of 25%) is 7 months; in the assay on breast cancer (patient with a DRP value of 75%), 13 months.

`CC(=O)[C@]1(O)Cc2c(O)c3c(c(O)c2[C@@H](O[C@H]2C[C@H](N)[C@H](O)[C@H](C)O2)C1)C(=O)c1ccccc1C3=O` [idarubicine, idarubicin]: in the assay on NCI60 cancer cell lines (NCI60 growth assay, FIG. 1), the “effect on the NCI60 tumor cell lines in multidimensional scaling plot of growth inhibition profiles” value is listed as “slightly different effect on the NCI60 tumor cell lines”.

The values above are taken from US10900089B2, “Methods for predicting drug responsiveness in cancer patients” (Oncology Venture ApS, priority 2017, dated 2021).
